Laboratory results published in ChEMBL document CHEMBL1201862, “PubChem BioAssay data set” (2004).
Calls of active or inactive are those of the source.

Assays:
[1] = biological target: T1, Calpain-2 catalytic subunit (Sus scrofa, UniProt P43367); assay: m-calpain protease blockers, concentration series – biochemical, fluorogenic peptide substrate, dose response (AID 1420); assay type: functional
T1 sequence (P43367 whole entry): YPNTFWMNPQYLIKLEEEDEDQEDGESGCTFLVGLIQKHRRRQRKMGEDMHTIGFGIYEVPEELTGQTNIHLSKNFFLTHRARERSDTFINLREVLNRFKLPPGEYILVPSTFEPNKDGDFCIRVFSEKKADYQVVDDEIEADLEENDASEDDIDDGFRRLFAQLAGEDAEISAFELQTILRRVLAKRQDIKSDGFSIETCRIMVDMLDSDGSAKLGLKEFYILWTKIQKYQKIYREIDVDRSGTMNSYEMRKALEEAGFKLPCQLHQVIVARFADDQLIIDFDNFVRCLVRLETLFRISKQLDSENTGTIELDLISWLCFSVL

[2] = biological target: T2, Mannose-6-phosphate isomerase (Homo sapiens, UniProt P34949); assay: MPI inhibition at elevated mannose 6-phosphate – biochemical, fluorescence intensity, high mannose 6-phosphate, primary screen (AID 1220)
T2 sequence (P34949 whole entry): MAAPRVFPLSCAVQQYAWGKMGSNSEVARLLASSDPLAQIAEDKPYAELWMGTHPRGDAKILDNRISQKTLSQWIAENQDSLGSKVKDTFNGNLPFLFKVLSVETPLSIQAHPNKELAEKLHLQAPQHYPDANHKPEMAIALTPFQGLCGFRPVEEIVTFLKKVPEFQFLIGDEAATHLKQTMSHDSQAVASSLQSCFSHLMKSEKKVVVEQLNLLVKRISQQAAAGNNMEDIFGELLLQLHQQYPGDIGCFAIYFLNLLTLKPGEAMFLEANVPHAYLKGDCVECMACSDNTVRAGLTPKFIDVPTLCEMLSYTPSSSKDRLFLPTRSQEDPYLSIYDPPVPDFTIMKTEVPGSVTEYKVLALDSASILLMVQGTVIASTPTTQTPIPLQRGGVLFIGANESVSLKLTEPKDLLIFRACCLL

cells = assay type: functional
[3] = off-target signal loss in HeLa-CEM21 co-culture – HeLa F-luc CTL cells, cherry-picked, counter-screen for HIV-1 Env fusion inhibitor project, dose response (AID 652040); assay type: functional, cell-based;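 also: potency for signal decrease marking cytotoxic or nonspecific inhibition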
[4] = HIV-1 AD8 envelope cell-cell fusion blockers – cherry-pick, dose response (AID 652062); assay type: functional, cell-based;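 also: luciferase signal from cell-cell fusion driven by HIV-1 clade B AD8 Env; potency is for inhibitors of fusion seen as a drop in luminescence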
[5] = HIV-1 Vif–A3G interaction blockers – biochemical, TR-FRET, GST-Vif 1-94, biotin-A3G peptide, dose response retest, primary screen (AID 1117319); assay type: functional;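 also: TR-FRET signal of purified GST-Vif binding a biotinylated A3G peptide; inhibitors lower the FRET signal by blocking Vif and A3G binding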
[6] = viability loss in Vero cells – cytotoxicity control for Vif-APOBEC3G degradation inhibitor project, dose response (AID 1117358); assay type: functional; details: Vero
Cysteine protease ATG4B = biological target: T3, Cysteine protease ATG4B (Homo sapiens, UniProt Q9Y4P1); assay type: functional;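 also: Fluorescence-based dose-response confirmation assay measuring inhibition of ATG4B activity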
T3 sequence (Q9Y4P1 whole entry): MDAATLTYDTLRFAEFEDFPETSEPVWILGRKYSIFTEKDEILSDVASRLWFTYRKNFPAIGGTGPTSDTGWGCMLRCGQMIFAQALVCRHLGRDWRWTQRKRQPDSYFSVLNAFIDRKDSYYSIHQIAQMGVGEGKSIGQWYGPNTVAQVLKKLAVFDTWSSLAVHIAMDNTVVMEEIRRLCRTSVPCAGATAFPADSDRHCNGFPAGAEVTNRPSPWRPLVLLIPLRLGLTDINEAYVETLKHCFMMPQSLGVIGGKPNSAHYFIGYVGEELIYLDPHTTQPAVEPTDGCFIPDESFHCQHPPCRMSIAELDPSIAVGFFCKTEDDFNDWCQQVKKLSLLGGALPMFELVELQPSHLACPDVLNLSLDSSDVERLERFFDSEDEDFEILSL

Phospholipase A2 = Phospholipase A2 (Homo sapiens, UniProt P04054); assay type: functional;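 also: confirmatory dose-response counterscreen on phospholipase A2, testing hits that came from an ultra-high-throughput screen for ATG4B inhibitors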
[7] = biological target: T4, Long-chain-fatty-acid--AMP ligase FadD28 (Mycobacterium tuberculosis, UniProt P9WQ59); assay: Fluorescence polarization aasay to screen for inhibitors that compete for the binding of FadD28 to a bisubstrate Measured in Biochemical System Using Plate Reader - 2147-01_Inhibitor_Dose_CherryPick_Activity.; assay type: functional, Mycobacterium tuberculosis H37Rv
T4 sequence (P9WQ59 whole entry): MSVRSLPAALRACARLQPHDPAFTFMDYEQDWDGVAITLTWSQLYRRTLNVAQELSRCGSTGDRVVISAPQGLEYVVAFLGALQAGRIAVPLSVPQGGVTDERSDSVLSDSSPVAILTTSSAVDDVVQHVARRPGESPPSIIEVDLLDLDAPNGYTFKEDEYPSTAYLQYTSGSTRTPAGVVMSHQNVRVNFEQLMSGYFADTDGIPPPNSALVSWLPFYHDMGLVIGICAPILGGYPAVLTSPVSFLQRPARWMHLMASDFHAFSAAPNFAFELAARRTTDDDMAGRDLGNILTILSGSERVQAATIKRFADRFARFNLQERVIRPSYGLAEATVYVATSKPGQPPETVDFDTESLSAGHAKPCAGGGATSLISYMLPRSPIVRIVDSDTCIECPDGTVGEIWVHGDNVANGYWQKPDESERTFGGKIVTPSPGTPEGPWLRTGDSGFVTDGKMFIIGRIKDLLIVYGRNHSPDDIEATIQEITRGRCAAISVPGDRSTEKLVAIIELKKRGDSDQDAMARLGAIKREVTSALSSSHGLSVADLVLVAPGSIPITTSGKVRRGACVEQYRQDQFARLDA

[8] = viability of PTEN-deleted HCT116 cells – cell-based, HCT116 PTEN knockout, dose response (AID 1047); assay type: functional;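 also: HCT116 colon tumor cells with PTEN knocked out; cells exposed to compound for 60 hours before readout; potency for loss of cell viability measured by luminescence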
[9] = viability of HCT116 lacking mutant beta-catenin – cell-based, human colon tumor, dose response (AID 1045); assay type: functional;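 also: HCT116 colon tumor cells with beta catenin knocked out; cells exposed to compound for 60 hours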
[10] = biological target: T5, Heat shock factor protein 1 (Mus musculus, UniProt P38532); assay: enhancement of HSF1-driven luciferase signal – cell-based, NIH3T3, luminescence, dose retest, confirmation (AID 435004); assay type: functional;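 also: stress induced by proteasome inhibitor MG132 added 30 min after compound; luciferase reporter driven by HSF1 response element in NIH3T3 cells; actives raise luminescence as potentiators of the MG132 stress response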
T5 sequence (P38532 whole entry): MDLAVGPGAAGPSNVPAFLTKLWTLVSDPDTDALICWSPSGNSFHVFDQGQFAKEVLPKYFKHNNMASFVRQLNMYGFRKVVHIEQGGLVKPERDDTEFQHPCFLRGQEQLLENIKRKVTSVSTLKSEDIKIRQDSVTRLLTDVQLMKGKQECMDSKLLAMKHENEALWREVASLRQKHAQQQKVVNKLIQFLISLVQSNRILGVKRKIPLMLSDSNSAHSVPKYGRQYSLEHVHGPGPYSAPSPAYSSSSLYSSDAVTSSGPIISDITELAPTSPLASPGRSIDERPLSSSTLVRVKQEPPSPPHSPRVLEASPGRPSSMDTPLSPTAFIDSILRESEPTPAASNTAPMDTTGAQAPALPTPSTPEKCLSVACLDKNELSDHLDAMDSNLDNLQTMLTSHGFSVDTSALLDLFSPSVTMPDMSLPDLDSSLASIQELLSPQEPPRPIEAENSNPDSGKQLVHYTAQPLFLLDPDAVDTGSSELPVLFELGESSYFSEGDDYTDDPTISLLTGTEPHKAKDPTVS

[11] = Fluorescence-based cell-based high throughput dose response assay for inhibitors of the interaction of nucleotide-binding oligomerization domain containing 2 (NOD2) and the receptor-interacting serine-threonine kinase 2 (RIPK2).; assay type: functional; details: Homo sapiens

Sequence of Phospholipase A2 (P04054 whole entry): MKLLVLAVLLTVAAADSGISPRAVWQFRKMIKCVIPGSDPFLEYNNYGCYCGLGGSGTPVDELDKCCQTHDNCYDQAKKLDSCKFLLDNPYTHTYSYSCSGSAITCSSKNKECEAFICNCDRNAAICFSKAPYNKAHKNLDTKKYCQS

With `COCCn1c(C)cc(C(=O)COC(=O)CNC(=O)c2ccccc2)c1C` the IC50 [1] was > 50 µM (not active).
For `Oc1ccc(F)c2cccnc12`, the IC50 [2] was 7.42 µM (active) and the IC50 (cells) was 4.21 µM (active).
For `O=C1c2cccc(OCc3ccc(F)cc3)c2CCN1Cc1ccccc1`, the AC50 [3] was 4.11 µM (active) and the AC50 [4] was 10.1 µM (active).
With `O=C(c1ccc(S(=O)(=O)N2CCOCC2)cc1)N1CCN(c2cccc(Cl)c2)CC1` the IC50 [5] was > 100 µM (active).
In the case of `COC(=O)c1cnn2c(C)c(Cc3cccc(F)c3)c(C)nc12`, the CC50 [6] is reported as > 40 µM (active).
For `CCOC(=O)N1CCC(N2C(=O)c3ccccc3C2Nc2ccccc2)CC1` (configuration not stated), the IC50 [5] was > 100 µM (active).
In the case of `O=C(O)c1cc(Br)ccc1NN=C1CCCCC1`, the IC50 (Cysteine protease ATG4B) is reported as 13.4 µM (active), the IC50 (Phospholipase A2) is reported as 9.4 µM (active) and the AC50 [7] is reported as > 100 µM (inactive).
For `Cc1cc(SC#N)cc(C)c1NC(=O)CCl`, the EC50 [8] was 19.8 µM (active), the EC50 [9] was 17.4 µM (active) and the EC50 [10] was 5.97 µM (active). For the same compound, the IC50 [11] was 11.1 µM (inactive).
In the case of `Cc1ccc(CN(C(=O)Cn2nnc3ccccc32)C(C(=O)NCc2ccco2)c2cccs2)cc1` (configuration not stated), the CC50 [6] is reported as > 40 µM (active).
In the case of `CC(C)(C)NC(=O)c1ccc(Sc2ccccc2)c([N+](=O)[O-])c1`, the IC50 [1] is reported as 11.9 µM (not active).
